Legend:
Type in all cases: cell-based
Caco-2 cells [1] = assay: cytotoxicity in Caco-2 cells (lactate dehydrogenase (LDH) kit)
Experimental: (§1) Lactate generation, growth yield and survival under normal and inhibitory conditions of three different tumorigenic cells lines were determined in more detailed measurements. […] Cytotoxicity was measured by the Lactate dehydrogenase (LDH) kit (Roche).

COLO 829 cells [2] = assay: cytotoxicity in COLO 829 cells (LDH kit)
Experimental: as §1

MDA-MB-231 cells [3] = assay: lactate excretion by MDA-MB-231 cells; settings: single addition, different concentrations
Experimental: (§2) Preliminary in vivo tests were run by measuring lactate production by three different tumorigenic cell lines. Again, 100 µM concentrations of tested compounds have been added to the medium. For the experiment, the following tumorigenic cells lines originating from different tumours were tested: Caco-2 cells (Figure 10a), originating from colorectal adenoma carcinoma; COLO 829 cells (Figure 10b), isolated from melanoma; and MDA-MB-231 cells (Figure 10c) derived from metastatic phase of mammary/breast cancer. All adherent cell lines were grown in the RPMI 1640 GlutaMAX substrate (Thermo Fisher) supplemented with 10% FBS.
(§3) Inhibitors No. 23, 29, 30 and 31 were tested for preventing lactate generation by the MDA-MB-231 cells. […] No significant discrepancies of total cell numbers were observed (Figure 14e) due to the different concentrations of inhibitors in the medium. […] The average percent of dead MDA-MB-231 cells in the control and in the presence of different concentrations of inhibitors were as follows: inh. 23 (2,98±0,2%), inh. 29 (3,37±0,39%), inh. 30 (3,4±0,21%), inh. 31 (6,87±0,44%). Additionally, cytotoxicity of inh. 3 (7,2±0,47%) and 9 (6,59±0,29%) for MDA-MB-231 cells were also determined. No dose dependent decrease of survival was observed by any inhibitor.
(§4) A decrease in inhibitory effectiveness of some compounds was observed after certain period of time (Example 11). […] Therefore, the influence of selected inhibitors was assessed by sequential re-insertion of low concentrations of inhibitors at indicated time points. The inhibitors were first added to the medium 8 hours after the inoculation followed by periodically additions at 24-hour intervals (marked by arrows).
(§5) In MDA-MB-231 calls similar results to those found in Caco-2 cells were observed. […] No significant cytostatic (Figure 17f) or cytotoxic effect of inhibitors could be detected after 92 hours of incubation despite of sequential addition of various concentrations of inhibitors. The following average percentages of dead cells were perceived in the medium without and with inh. 3 (2,05±0,18%), inh. 9 (1,85±0,05%), inh. 23 (2,20±0,15%), inh. 29 (1,54±0,16%) and inh. 30 (2,00±0,18%). No detrimental effects of increased inhibitors concentrations on cell deaths have been observed.

MDA-MB-231 cells [4] = assay: cytotoxicity in MDA-MB-231 cells (LDH kit)
Experimental: as §1
Inhibitors No. 23, 29, 30 and 31 were tested for preventing lactate generation by the MDA-MB-231 cells.

Caco-2 cells [5] = assay: lactate excretion by Caco-2 cells; settings: single addition, different concentrations (20-80 µM)
Experimental: as §2, with “Again, 100 µM concentrations of tested compounds have been added to the medium.” left out, “cancer.” for “cancer. All adherent cell lines were grown in the RPMI 1640 GlutaMAX substrate (Thermo Fisher) supplemented with 10% FBS.”
as §1
Therefore, the influence of selected inhibitors was assessed by sequential re-insertion of low concentrations of inhibitors at indicated time points. The inhibitors were first added to the medium 8 hours after the inoculation followed by periodically additions at 24-hour intervals (marked by arrows).

COLO 829 cells [6] = assay: lactate excretion by COLO 829 cells
Experimental: as §2
On the basis of preliminary results, inhibitors No. 23, 29, 30 and 31 were tested on COLO 829 cells. […] No significant discrepancies of total cell numbers in respect to the control were observed due to the different concentrations of inhibitors in the medium (Figure 13e). The average percent of dead COLO 829 cells in the control and in the presence of different concentrations of inhibitors were as follows: inh. 23 (9,23±0,6%), inh. 29 (9,31±0,73%), inh. 30 (8,27±0,49%), inh. 31 (8,26±0,38%). Additionally, cytotoxicity of inh. 3 (5,01±1,08%) and 9 (3,65±0,78%) for COLO 829 cells were also determined. No dose dependent decrease of survival was observed by any inhibitor.
as §4
No significant cytostatic (Figure 16f) of cytotoxic effect of inhibitors could be detected after 92 hours of incubation despite of sequential addition of various concentrations of inhibitors. The following average percentages of dead cells were perceived in the medium without and media with inh. 3 (1,95±0,15%) inh. 9 (1,70±0,14%), inh. 23 (2,40±0,09%), inh. 29 (1,66±0,25%) and inh. 30 (1,38±0,18%). No detrimental effects of increased inhibitors concentrations on cell deaths have been observed.

MDA-MB-231 cells [7] = assay: total cell numbers of MDA-MB-231 cells at end of incubation; settings: single addition, different concentrations
Experimental: as §3, §5

Caco-2 cells [8] = assay: total cell numbers of Caco-2 cells at end of incubation; settings: single addition, end of incubation (92 hours)
Experimental: as §1

[9] = sequential addition at 24-hour intervals, 92 hours, average over medium without and with inhibitor
[10] = single addition, average over control and different concentrations of inhibitor

SMILES: O=C(CCS(=O)(=O)c1ccc(Cl)cc1)Nc1nnc(-c2ccno2)o1 [Inhibitor No. 29, 3-(4-chlorophenyl)sulfonyl-N-(5-isoxazol-5-yl-1,3,4-oxadiazol-2-yl)propanamide]
- average percentages of dead cells, Caco-2, sequential re-insertion (Caco-2 cells [1]; [9]): 4,57±0,04%
- average percent of dead cells, Caco-2 (Caco-2 cells [1]; [10]): 4,95±0,27%
- average percentages of dead cells, COLO 829, sequential re-insertion (COLO 829 cells [2]; [9]): 1,66±0,25%
- average percent of dead COLO 829 cells (COLO 829 cells [2]; [10]): 9,31±0,73%
- lactate excretion by MDA-MB-231 cells (MDA-MB-231 cells [3]): dose dependent inhibition of lactate excretion
- average percentages of dead cells, MDA-MB-231, sequential re-insertion (MDA-MB-231 cells [4]; [9]): 1,54±0,16%
- average percent of dead MDA-MB-231 cells (MDA-MB-231 cells [4]; [10]): 3,37±0,39%
- lactate generation by Caco-2 cells (Caco-2 cells [5]): effectively reduced the lactate accumulation in the medium in a dose dependent manner
- lactate formation in COLO 829 cells, sequential re-insertion (COLO 829 cells [6]; inhibitor added 8 hours after inoculation, then at 24-hour intervals, low concentrations (from 10 µM)): slightly weaker inhibitions
- lactate excretion by COLO 829 cells (COLO 829 cells [6]; single addition, different concentrations): strongest reductions of lactate excretion
- total cell numbers, MDA-MB-231 (MDA-MB-231 cells [7]): dose dependent decrease of cell numbers
- total cell numbers, Caco-2 (Caco-2 cells [8]): minor dose dependent reductions in total cell numbers

— EP3833345B1, “SMALL MOLECULE-INHIBITORS OF 6-PHOSPHOFRUCTO-1-KINASE FOR REDUCING LACTATE GENERATION BY CANCER CELLS” (Kemijski Institut, priority 2018, dated 2020)
